In ChEMBL document CHEMBL3885881, “DrugMatrix”:

Organism: Rattus norvegicus
Test: DrugMatrix - Regimen: Daily Repeat
Format: toxicity, organism-based, Sprague-Dawley
Design: regimen Daily Repeat, gender Male, age 6-8 weeks
Settings: in vivo, po, route oral GAVAGE, vehicle 100 % WATER; for ABSOLUTE BASOPHIL / ABSOLUTE EOSINOPHIL / ABSOLUTE LYMPHOCYTE / ABSOLUTE MONOCYTE / ABSOLUTE SEGMENTED NEUTROPHIL / BASOPHIL / EOSINOPHIL / ERYTHROCYTE COUNT / HEMATOCRIT / HEMOGLOBIN / LEUKOCYTE COUNT / LYMPHOCYTE / MEAN CORPUSCULAR HEMOGLOBIN / MEAN CORPUSCULAR HEMOGLOBIN CONCENTRATION / NEUTROPHIL / NUCLEATED RED BLOOD CELLS / PLATELET COUNT: tissue Blood; for ALANINE AMINOTRANSFERASE / ALBUMIN / ALKALINE PHOSPHATASE / ASPARTATE AMINOTRANSFERASE / BLOOD UREA NITROGEN / CARBON DIOXIDE / CHLORIDE / CREATINE PHOSPHOKINASE / CREATININE / GLUCOSE / LACTATE DEHYDROGENASE / LIPASE / PHOSPHORUS / POTASSIUM / SODIUM / TOTAL BILIRUBIN / TOTAL PROTEIN / URIC ACID / CHOLESTEROL: tissue Plasma
[1] = 0 mg/kg, 72 h, dose level Control, time 3 day
[2] = 0 mg/kg, 120 h, dose level Control, time 5 day
[3] = 94 mg/kg, 72 h, dose level High, time 3 day

Compound: CN1[C@@H]2CC[C@H]1C[C@@H](OC(=O)C(CO)c1ccccc1)C2 (some centres not stated) [ATROPINE]
- ABSOLUTE BASOPHIL [1]: 0 CELLS/uL
- ABSOLUTE EOSINOPHIL [1]: 33.67 CELLS/uL
- ABSOLUTE LYMPHOCYTE [1]: 11257.17 CELLS/uL
- ABSOLUTE MONOCYTE [1]: 72.17 CELLS/uL
- ABSOLUTE SEGMENTED NEUTROPHIL [1]: 1220.33 CELLS/uL
- BASOPHIL [1]: 0%
- EOSINOPHIL [1]: 0.33%
- ERYTHROCYTE COUNT [1]: 5 x10E6/uL
- HEMATOCRIT [1]: 32.62%
- HEMOGLOBIN [1]: 12.83 G/DL
- LEUKOCYTE COUNT [1]: 12.58 x10E3/uL
- LYMPHOCYTE [1]: 89%
- MEAN CORPUSCULAR HEMOGLOBIN [1]: 25.67 pg
- MEAN CORPUSCULAR HEMOGLOBIN CONCENTRATION [1]: 39.35 G/DL
- NEUTROPHIL [1]: 10%
- NUCLEATED RED BLOOD CELLS [1]: 0 /100WBC
- PLATELET COUNT [1]: 1162.5 x10E3/uL
- ALANINE AMINOTRANSFERASE [1]: 45.33 u/L
- ALBUMIN [1]: 3.95 G/DL
- ALKALINE PHOSPHATASE [1]: 356.17 u/L
- ASPARTATE AMINOTRANSFERASE [1]: 81 u/L
- BLOOD UREA NITROGEN [1]: 11 mg/dL
- CARBON DIOXIDE [1]: 29.83 mmol/L
- CHLORIDE [1]: 97.8 MEQ/L
- CREATINE PHOSPHOKINASE [1]: 211.33 u/L
- CREATININE [1]: 0.11 mg/dL
- GLUCOSE [1]: 164.67 mg/dL
- LACTATE DEHYDROGENASE [1]: 143.17 u/L
- LIPASE [1]: 10.17 u/L
- PHOSPHORUS [1]: 10.88 mg/dL
- POTASSIUM [1]: 6.08 MEQ/L
- SODIUM [1]: 141.54 MEQ/L
- TOTAL BILIRUBIN [1]: 0.23 mg/dL
- TOTAL PROTEIN [1]: 5.65 G/DL
- URIC ACID [1]: 1 mg/dL
- ABSOLUTE BASOPHIL [2]: 0 CELLS/uL
- ABSOLUTE EOSINOPHIL [2]: 48.67 CELLS/uL
- ABSOLUTE LYMPHOCYTE [2]: 9267.83 CELLS/uL
- ABSOLUTE MONOCYTE [2]: 194.33 CELLS/uL
- ABSOLUTE SEGMENTED NEUTROPHIL [2]: 572.5 CELLS/uL
- BASOPHIL [2]: 0%
- EOSINOPHIL [2]: 0.33%
- ERYTHROCYTE COUNT [2]: 5.41 x10E6/uL
- HEMATOCRIT [2]: 36.17%
- HEMOGLOBIN [2]: 13.9 G/DL
- LEUKOCYTE COUNT [2]: 10.08 x10E3/uL
- LYMPHOCYTE [2]: 92.17%
- MEAN CORPUSCULAR HEMOGLOBIN [2]: 25.73 pg
- MEAN CORPUSCULAR HEMOGLOBIN CONCENTRATION [2]: 38.45 G/DL
- NEUTROPHIL [2]: 5.67%
- NUCLEATED RED BLOOD CELLS [2]: 0.33 /100WBC
- PLATELET COUNT [2]: 1122.33 x10E3/uL
- ALANINE AMINOTRANSFERASE [2]: 52.83 u/L
- ALBUMIN [2]: 4.12 G/DL
- ALKALINE PHOSPHATASE [2]: 367.33 u/L
- ASPARTATE AMINOTRANSFERASE [2]: 88 u/L
- BLOOD UREA NITROGEN [2]: 12.67 mg/dL
- CARBON DIOXIDE [2]: 33.67 mmol/L
- CHLORIDE [2]: 97 MEQ/L
- CHOLESTEROL [2]: 67.5 mg/dL
- CREATINE PHOSPHOKINASE [2]: 358.67 u/L
- CREATININE [2]: 0.14 mg/dL
- GLUCOSE [2]: 152.33 mg/dL
- LACTATE DEHYDROGENASE [2]: 180 u/L
- LIPASE [2]: 10.5 u/L
- PHOSPHORUS [2]: 10.63 mg/dL
- POTASSIUM [2]: 5.99 MEQ/L
- SODIUM [2]: 141.85 MEQ/L
- TOTAL BILIRUBIN [2]: 0.2 mg/dL
- TOTAL PROTEIN [2]: 6.18 G/DL
- URIC ACID [2]: 0.52 mg/dL
- ABSOLUTE BASOPHIL [3]: 0 CELLS/uL
- ABSOLUTE EOSINOPHIL [3]: 0 CELLS/uL
- ABSOLUTE LYMPHOCYTE [3]: 12944 CELLS/uL
- ABSOLUTE MONOCYTE [3]: 33.33 CELLS/uL
- ABSOLUTE SEGMENTED NEUTROPHIL [3]: 789.33 CELLS/uL
- BASOPHIL [3]: 0%
- EOSINOPHIL [3]: 0%
- ERYTHROCYTE COUNT [3]: 5.37 x10E6/uL
- HEMATOCRIT [3]: 33.77%
- HEMOGLOBIN [3]: 13.4 G/DL
- LEUKOCYTE COUNT [3]: 13.77 x10E3/uL
- LYMPHOCYTE [3]: 93.67%
- MEAN CORPUSCULAR HEMOGLOBIN [3]: 24.93 pg
- MEAN CORPUSCULAR HEMOGLOBIN CONCENTRATION [3]: 39.67 G/DL
- NEUTROPHIL [3]: 6%
- NUCLEATED RED BLOOD CELLS [3]: 0 /100WBC
- PLATELET COUNT [3]: 1031.67 x10E3/uL
- ALANINE AMINOTRANSFERASE [3]: 59.33 u/L
- ALBUMIN [3]: 4.03 G/DL
- ALKALINE PHOSPHATASE [3]: 322.67 u/L
- ASPARTATE AMINOTRANSFERASE [3]: 115 u/L
- BLOOD UREA NITROGEN [3]: 11 mg/dL
- CARBON DIOXIDE [3]: 26.33 mmol/L
- CHLORIDE [3]: 102.5 MEQ/L
- CHOLESTEROL [3]: 72.67 mg/dL
- CREATINE PHOSPHOKINASE [3]: 681.33 u/L
- CREATININE [3]: 0.13 mg/dL
- GLUCOSE [3]: 149.67 mg/dL
- LACTATE DEHYDROGENASE [3]: 237 u/L
- LIPASE [3]: 10.67 u/L
- PHOSPHORUS [3]: 9.43 mg/dL
- POTASSIUM [3]: 5.53 MEQ/L
- SODIUM [3]: 142.3 MEQ/L
- TOTAL BILIRUBIN [3]: 0.3 mg/dL
- TOTAL PROTEIN [3]: 5.6 G/DL
- URIC ACID [3]: 1 mg/dL
